Key:
Hep3B cells [1] = experiment: Proliferation assay (MTT), Hep3B; format: cell-based; conditions: Homo sapiens, HCC cell line, 48 h, mean ± S.E.M., read-out: IC50 against cell proliferation, Hep3B
Text: (§1) Human cancer cell lines derived from the liver (Hep3B, Huh7) and the lung (A549, H1299) were obtained from American Type Culture Collection (ATCC, Manassas, VA, USA). An H6c7 human normal pancreatic duct epithelial cell line was purchased from Kerafast (Boston, MA, USA). […] The media were supplemented with 10% fetal bovine serum (FBS) (Gibco/ThermoFisher Scientific) and 1% penicillin/streptomycin (Gibco/ThermoFisher Scientific). In the case of H6c7, the cells were maintained in a keratinocyte serum-free medium supplemented with a recombinant […] (rEGF) and bovine pituitary extract (Gibco/ThermoFisher Scientific).
(§2) HCC (Hep3B, Huh7) and NSCLC (A549, H1299) cell lines were seeded in a 96-well plate at a density of 2.5 × 10^4 cells/mL in complete media and allowed to adhere for 24 h. […] Then, the media were removed, and 200 µL of dimethyl sulfoxide (DMSO) (Duksan, Ansan, South Korea) was added to solubilize the formazan crystal. After a 30 min incubation, the absorbance was measured at 540 nm using a microplate reader (BMG LABTECH, Ortenberg, Germany).

H1299 cells = experiment: Proliferation assay (MTT), H1299; format: cell-based; conditions: Homo sapiens, NCI-H1299, NSCLC cell line, 48 h, mean ± S.E.M., read-out: IC50 against cell proliferation, H1299
Text: as §1, §2

Huh7 cells = experiment: Proliferation assay (MTT), Huh7; format: cell-based; conditions: Homo sapiens, Huh-7, HCC cell line, 48 h, mean ± S.E.M., read-out: IC50 against cell proliferation, Huh7
Text: as §1, §2

A549 cells [2] = experiment: Proliferation assay (MTT), A549; format: cell-based; conditions: Homo sapiens, NSCLC cell line, 48 h, mean ± S.E.M., read-out: IC50 against cell proliferation, A549
Text: as §1, §2

[3] = Cytotoxicity assay (MTT), H6c7 normal pancreatic duct epithelial cells; format: cell-based; conditions: normal human pancreatic duct epithelial cells, mean ± S.E.M., read-out: IC50 against cell viability (cytotoxicity), H6c7
Description: Human cancer cell lines derived from the liver (Hep3B, Huh7) and the lung (A549, H1299) were obtained from American Type Culture Collection (ATCC, Manassas, VA, USA). An H6c7 human normal pancreatic duct epithelial cell line was purchased from Kerafast (Boston, MA, USA). Hep3B, Huh7, and A549 cells were cultured in Dulbecco′s Modified Eagle′s Medium (DMEM) (Hyclone, Logan, UT, USA), and H1299 cells were cultured in an RPMI-1640 medium (Hyclone). The media were supplemented with 10% fetal bovine serum (FBS) (Gibco/ThermoFisher Scientific) and 1% penicillin/streptomycin (Gibco/ThermoFisher Scientific). In the case of H6c7, the cells were maintained in a keratinocyte serum-free medium supplemented with a recombinant […] (rEGF) and bovine pituitary extract (Gibco/ThermoFisher Scientific). All the cells were incubated at 37 °C under a 5% CO2 atmosphere.
The H6c7 cell line was seeded in a 96-well plate in a complete medium. After 24 h, the culture medium was changed into a keratinocyte serum-free medium. […] The optical density was measured at 540 nm using a Spectrostar Nano microplate reader (BMG LABTECH).

human c-Met kinase = target: T1, human c-Met kinase (Homo sapiens, UniProt P08581); experiment: c-Met kinase assay (Kinase HotSpot, Reaction Biology); format: biochemical; conditions: for c-Met inhibition at fixed concentration / inhibition at 1 µM: 1 μM compound; for c-Met inhibition at fixed concentration: 1 µM; for inhibition at 1 µM: read-out: c-Met inhibition at fixed concentration; for IC50: three independent experiments, ATP 10 μM, read-out: IC50 against c-Met kinase
T1 construct: purchased Reaction Biology Corporation (Malvern, PA, USA), contract assay service
Description: Briefly, human c-Met kinase (5–10 mU) and peptide substrate ([…], 20 µM) were prepared in a reaction buffer with a final volume of 25 μL. The compounds were delivered into the reaction, followed ~20 min. later by the addition of a mixture of ATP and [γ-33P-ATP] (specific activity approx. 500 cpm/pmol, concentration as required) to a final concentration of 10 μM. […] Then, the reaction was spotted onto a P30 filtermat, and unbound phosphate was removed by washing 3 times for 5 min in 75 mM phosphoric acid and once in methanol prior to drying and scintillation counting. […] IC50 values and curve fits were obtained using GraphPad Prism 5 software.

[4] = tested on: Hep3B cells xenografted onto CAM; experiment: Hep3B xenografted CAM tumor model; format: in vivo, chick; conditions: 30 and 150 pmol/CAM, 4 days of incubation
Description: Fertilized chicken eggs were purchased from Byeolbichon Farm (Gyeongbuk, South Korea) and incubated at 37 °C with 55% relative humidity. On day 9 of egg incubation, a small hole was made in the shell over the air sac after the selection of bifurcated vessels. Another hole was made on the broadside using a needle by applying negative pressure to the wider part, creating false air sac. Using a grinding wheel (Dremel, Racine, WI, USA), a small window (1 cm^2) was created in the eggshell above the false air sac. […] The mixture was inoculated on the CAM (final drug doses = 30 and 150 pmol/CAM), and the anti-tumor activity of the drugs was compared at the same concentrations. After sealing the window in the eggshell, the eggs were then returned to the incubator. After 4 days of incubation, tumor tissues attached to CAM were resected from the embryo and harvested. The number of vessel branch points within the tumor region was counted and analyzed using ImageJ software. Chick embryo experiments were performed in accordance with the institutional guidelines of the Institute of Laboratory Animal Resources (1996) and Yeungnam University for the care and use of laboratory animals (2009). The experiment protocol was reviewed and approved by the Institutional Animal Care and Use Committee at the Yeungnam University.

c-MET = experiment: Immunoblotting of c-MET expression and phosphorylation in HCC and NSCLC cell lines; format: cell-based, human; conditions: 10 μM, 24 and 48 h; Hep3B, Huh7, A549, H1299 cells
Description: The cells (3.5 × 10^5) were seeded into a 60 mm dish and allowed to attach for 12 h. […] Cell lysates were collected in a radioimmune precipitation assay (RIPA) buffer containing a protease and phosphatase inhibitor cocktail (Thermo Fisher Scientific). Cell extracts were centrifuged at 17,000× g for 15 min, and the protein levels in collected supernatants were measured using a BCA protein assay reagent (Pierce; Rockford, IL, USA). The proteins were separated by SDS-PAGE and transferred at 200 mA to Hybond ECL nitrocellulose membranes (Amersham Life Science, Buckinghamshire, UK) for 1 h. Non-specific binding was blocked using 5% bovine serum albumin (BSA) in Tris-buffered saline (TBS)-Tween 20 (TBS-T) for 1 h. […] The membranes were then washed, incubated with ECL (Pierce, Appleton, WI, USA) detection reagent, and exposed under a luminescent image analyzer, LAS-4000mini. β-Actin was used as the loading control.

A549 cells [5] = experiment: Apoptosis by annexin V-FITC/PI FACS, A549; format: cell-based; conditions: Homo sapiens, 48 h, Q4 lower left, annexin V-FITC and PI negative, read-out: FACS quadrant Q4 viable cells, A549
Description: (§3) Then, the cells were stained with propidium iodide and Annexin V-FITC using a FITC Annexin V apoptosis detection kit (BD Biosciences, San Jose, CA, USA) as per the manufacturer’s instructions. Briefly, the vehicle- or the drug-treated cells (1 × 10^5) were washed with ice-cold PBS twice and suspended in 1× binding buffer (100 μL). Then, 5 μL of Annexin V-FITC and 5 µL of PI were added, gently vortexed, and incubated for 15 min at 25 °C in the dark. Thereafter, 400 µL of 1× binding buffer was added and analyzed by flow cytometry (FACSVerse Cytometer, BD Biosciences).

Hep3B cells [6] = experiment: Apoptosis by annexin V-FITC/PI FACS, Hep3B; format: cell-based; conditions: Homo sapiens, 48 h, Q4 lower left, annexin V-FITC and PI negative, read-out: FACS quadrant Q4 viable cells, Hep3B
Description: as §3

[7] = tested on: several cancer cell lines; design: method as in PMID 27145715; conditions: cited from earlier work
normal cell lines = tested on: normal cell lines; design: method as in PMID 27145715; conditions: cited from earlier work

T1 sequence (P08581 25-1390): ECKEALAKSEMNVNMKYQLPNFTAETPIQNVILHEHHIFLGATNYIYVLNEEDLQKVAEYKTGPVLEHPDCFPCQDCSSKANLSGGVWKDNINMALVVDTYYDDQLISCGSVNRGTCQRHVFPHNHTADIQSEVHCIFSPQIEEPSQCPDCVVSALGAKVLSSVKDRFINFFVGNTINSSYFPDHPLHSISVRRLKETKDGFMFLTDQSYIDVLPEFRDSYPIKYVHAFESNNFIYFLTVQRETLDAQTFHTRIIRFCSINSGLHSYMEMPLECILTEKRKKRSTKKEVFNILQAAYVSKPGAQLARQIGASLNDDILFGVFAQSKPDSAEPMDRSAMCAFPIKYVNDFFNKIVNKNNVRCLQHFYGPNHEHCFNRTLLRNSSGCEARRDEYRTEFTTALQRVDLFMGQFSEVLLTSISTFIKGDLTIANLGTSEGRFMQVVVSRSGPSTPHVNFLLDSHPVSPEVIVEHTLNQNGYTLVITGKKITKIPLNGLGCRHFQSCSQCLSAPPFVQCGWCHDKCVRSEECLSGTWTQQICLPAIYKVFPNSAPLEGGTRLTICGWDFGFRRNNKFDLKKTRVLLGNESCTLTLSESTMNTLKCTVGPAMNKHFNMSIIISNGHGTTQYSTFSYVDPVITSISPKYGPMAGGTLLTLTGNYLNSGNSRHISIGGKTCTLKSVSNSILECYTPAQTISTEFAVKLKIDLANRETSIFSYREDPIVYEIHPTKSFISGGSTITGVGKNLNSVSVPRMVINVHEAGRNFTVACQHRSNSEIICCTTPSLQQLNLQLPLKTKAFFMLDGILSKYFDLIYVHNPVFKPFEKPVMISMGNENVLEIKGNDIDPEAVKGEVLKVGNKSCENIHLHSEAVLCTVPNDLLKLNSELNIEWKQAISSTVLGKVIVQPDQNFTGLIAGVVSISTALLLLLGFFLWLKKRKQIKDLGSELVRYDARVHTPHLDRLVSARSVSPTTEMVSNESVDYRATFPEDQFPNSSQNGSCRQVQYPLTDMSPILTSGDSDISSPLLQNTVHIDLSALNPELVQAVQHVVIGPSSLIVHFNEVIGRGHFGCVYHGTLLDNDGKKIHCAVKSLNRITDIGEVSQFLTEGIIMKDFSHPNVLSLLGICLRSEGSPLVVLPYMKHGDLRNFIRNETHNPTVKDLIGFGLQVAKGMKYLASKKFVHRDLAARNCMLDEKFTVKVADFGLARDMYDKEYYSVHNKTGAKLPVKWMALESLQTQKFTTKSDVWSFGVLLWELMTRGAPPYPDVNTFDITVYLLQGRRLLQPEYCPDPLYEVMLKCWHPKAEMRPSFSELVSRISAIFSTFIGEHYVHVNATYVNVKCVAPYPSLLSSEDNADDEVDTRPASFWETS

IC50 (Hep3B cells [1])	IC50 (H1299 cells)	IC50 (Huh7 cells)	IC50 (A549 cells [2])	c-Met inhibition at fixed concentration (human c-Met kinase)	inhibition at 1 µM (human c-Met kinase)	IC50 (human c-Met kinase)	melting point	SMILES	IC50 at 48 h [3]	Inhibitory effect on tumor weight [4]	Tumor-induced angiogenesis (number of new vessel branches) [4]	Expression of c-MET and its phosphorylation (c-MET)	viability at 10 µM (A549 cells [5])	viability at 10 µM (Hep3B cells [6])	Anti-cancer activity against several cancer cell lines compared to sunitinib [7]	Toxicity to normal cell lines compared to sunitinib (normal cell lines)
> 100 µM	> 100 µM	> 100 µM	> 100 µM	4%	3.8%	> 1 µM	141 °C	COc1cc2nccc(Oc3c(C)nc(NC(=O)C4(C(=O)Nc5ccc(F)cc5)CC4)c(C)c3C)c2cc1OC [Compound 3]	> 100 µM							
2.1 ± 0.5 µM	8.9 ± 1.2 µM	6.2 ± 1.8 µM	12.4 ± 6.9 µM	94%	94.3%	0.0049 ± 0.0023 µM	119 °C	COc1cc2nccc(Oc3ccc(NC(=O)C4(C(=O)Nc5ccc(F)cc5)CC4)nc3)c2cc1OC [Compound 4]	19.9 ± 1.8 µM	greater than that of cabozantinib	significantly blocked	significantly reduced	61.8%	35.3%		
								COc1cc2nccc(Oc3ccc(NC(=O)C4(C(=O)Nc5ccc(F)cc5)CC4)cc3)c2cc1OC [Cabozantinib, cabozantinib, reference compound]	39.4 ± 4.3 µM		significantly blocked		81.3%	79.5%		
								CCN(CC)CCNC(=O)c1c(C)[nH]c(/C=C2\C(=O)Nc3nc(C)c(O)c(C)c32)c1C [Compound 1]							comparable anti-cancer activity	less toxic to normal cell lines

Source: PMC8468607 (International Journal of Molecular Sciences, 2021)
